“And” between values parts separate entries of the source, which are not always exact repeats. Equal entries are not always repeated. Inconclusive results and toxic doses are left out.

From PubChem BioAssay AID330 (DTP/NCI, 2004) come the findings set out here.

This experiment deals with P388 leukemia ip, CD2F1 mice, survival T/C. The experiment can be described thus: NCI In Vivo Anticancer Drug Screen. Data for tumor model P388 Leukemia (intraperitoneal) in CD2F1 (CDF1) mice. To be noted: endpoint: median survival time, higher = longer survival. An outline of the steps:
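Mice carrying the transplanted tumor received test compound or vehicle. Survival was recorded in each group, and the value is the treated-group measurement divided by that of the vehicle-treated control group.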

The mark [1] stands for this setting: dose: 60.0 mg/kg/injection, schedule: Q01DX005 (ip), vehicle: Klucel (hydroxypropylcellulose) (HPC).
[2] abbreviates: dose: 50.0 mg/kg/injection, schedule: Q01DX005 (ip), vehicle: saline with Tween-80.
[3] abbreviates: dose: 100.0 mg/kg/injection, schedule: Q01DX005 (ip), vehicle: saline with Tween-80.
Setting [4] is: dose: 200.0 mg/kg/injection, schedule: Q01DX005 (ip), vehicle: saline with Tween-80.
Where [5] appears, read: dose: 50.0 mg/kg/injection, schedule: Q01DX009 (ip), vehicle: saline with Tween-80.
The mark [6] stands for this setting: dose: 50.0 mg/kg/injection, schedule: Q01DX005 (ip), vehicle: Klucel (hydroxypropylcellulose) (HPC).
The mark [7] stands for this setting: dose: 100.0 mg/kg/injection, schedule: Q01DX005 (ip), vehicle: Klucel (hydroxypropylcellulose) (HPC).
Setting [8] is: dose: 60.0 mg/kg/injection, schedule: Q01DX005 (ip), vehicle: saline with Tween-80.
Setting [9] is: dose: 120.0 mg/kg/injection, schedule: Q01DX005 (ip), vehicle: saline with Tween-80.
The mark [10] stands for this setting: dose: 240.0 mg/kg/injection, schedule: Q01DX005 (ip), vehicle: saline with Tween-80.

Consider `CC(C(=O)O)n1c(=O)ssc1=O` (stereo not given), for which the T/C runs as follows: (dose: 15.0 mg/kg/injection, schedule: Q01DX005 (ip), vehicle: Klucel (hydroxypropylcellulose) (HPC)) 102 % of control; (dose: 30.0 mg/kg/injection, schedule: Q01DX005 (ip), vehicle: Klucel (hydroxypropylcellulose) (HPC)) 93 % of control; under setting [1], 93 % of control.

On to `Cc1ccc(CC2C=CCN2)cc1` (stereo not given), for which the T/C runs as follows: (dose: 100.0 mg/kg/injection, schedule: Q01DX001 (ip), vehicle: distilled water + alcohol) 99 % of control; (dose: 200.0 mg/kg/injection, schedule: Q01DX001 (ip), vehicle: distilled water + alcohol) 100 % of control.

For the compound `C/C(=N\NC(=S)NNC(=S)N1CCCc2ccccc21)c1ccccn1`, the T/C was 113 % of control (dose: 100.0 mg/kg/injection, schedule: Q04DX002 (ip), vehicle: Klucel (hydroxypropylcellulose) (HPC)) and 115 % of control (dose: 200.0 mg/kg/injection, schedule: Q04DX002 (ip), vehicle: Klucel (hydroxypropylcellulose) (HPC)).

Regarding `CCCCN(N=O)C(C)=O`, the T/C (dose: 100.0 mg/kg/injection, schedule: Q04DX002 (ip), vehicle: saline with Tween-80) is 101 % of control and the T/C (dose: 200.0 mg/kg/injection, schedule: Q04DX002 (ip), vehicle: saline with Tween-80) was 98 % of control.

`C=C1C(=O)OC2C1C(OC(=O)/C(=C/C)CO)CC(C)(O)C1CC=C(C)C21` (stereo not given): the T/C is 109 % of control (dose: 11.88 mg/kg/injection, schedule: Q01DX005 (ip), vehicle: Klucel (hydroxypropylcellulose) (HPC)); 109 % of control (dose: 23.75 mg/kg/injection, schedule: Q01DX005 (ip), vehicle: Klucel (hydroxypropylcellulose) (HPC)); 102 % of control (dose: 47.5 mg/kg/injection, schedule: Q01DX005 (ip), vehicle: Klucel (hydroxypropylcellulose) (HPC)).

Regarding `O=C1CN=C(c2ccccc2)N(c2ccccc2)N1`, the T/C is 107 % of control under setting [1]; 100 % of control (dose: 120.0 mg/kg/injection, schedule: Q01DX005 (ip), vehicle: Klucel (hydroxypropylcellulose) (HPC)); 103 % of control (dose: 240.0 mg/kg/injection, schedule: Q01DX005 (ip), vehicle: Klucel (hydroxypropylcellulose) (HPC)).

With `COc1cccc2c1OC(=O)C(S(=O)(=O)c1ccccc1)C2` (stereo not given), the T/C was 97 % of control under setting [2], 104 % of control under setting [3] and 101 % of control under setting [4].

On to `O=C(c1ccc2c(c1)OCO2)S(=O)(=O)O`, for which the T/C (dose: 60.0 mg/kg/injection, schedule: Q01DX005 (ip), vehicle: saline) was 102 % of control; the T/C (dose: 120.0 mg/kg/injection, schedule: Q01DX005 (ip), vehicle: saline) is 96 % of control; the T/C (dose: 240.0 mg/kg/injection, schedule: Q01DX005 (ip), vehicle: saline) is 97 % of control.

With `CNC(=O)c1ccccc1C(O)c1ccc(C)cc1` (stereo not given), the T/C is 105 % of control under setting [5]; 99 % of control (dose: 100.0 mg/kg/injection, schedule: Q01DX009 (ip), vehicle: saline with Tween-80); 99 % of control (dose: 200.0 mg/kg/injection, schedule: Q01DX009 (ip), vehicle: saline with Tween-80).

For the compound `C/C=C(\C)C(=O)N/N=C/c1cccnc1`, the T/C was 103 % of control under setting [6]; 103 % of control under setting [7]; 103 % of control (dose: 200.0 mg/kg/injection, schedule: Q01DX005 (ip), vehicle: Klucel (hydroxypropylcellulose) (HPC)).

Consider `C[Si](C)(C)O[C@@H]1CCCC1N` (stereo not given in full), for which the T/C was 106 % of control under setting [8], 97 % of control under setting [9] and 105 % of control under setting [10].

With `C#CC(OS(=O)(=O)C(F)(F)F)=C1C2CC3CC(C2)CC1C3`, the T/C by setting is: under setting [2], 100 % of control; under setting [3], 98 % of control; under setting [4], 100 % of control.

Turning to `Cc1c[nH]c2nc(C)n(-c3ccccc3F)c(=N)c12`, the T/C runs as follows: under setting [6], 99 % of control; under setting [7], 91 % of control.

In the case of `CCOC(=O)c1cn2ccccc2c1C(=O)OCC`, the T/C runs as follows: under setting [8], 108 % of control; under setting [9], 99 % of control; under setting [10], 92 % of control.

For `Cc1ccc(-c2cc3cc4c(cc3[nH]2)Sc2ccccc2O4)cc1`, the T/C (dose: 100.0 mg/kg/injection, schedule: Q01DX001 (ip), vehicle: Klucel (hydroxypropylcellulose) (HPC)) is 98 % of control and the T/C (dose: 200.0 mg/kg/injection, schedule: Q01DX001 (ip), vehicle: Klucel (hydroxypropylcellulose) (HPC)) is 89 % of control.

For the compound `CC(=O)c1ccc2c(c1)N(CCCN1CCN(CCO)CC1)c1ccccc1S2`, the T/C (dose: 1.56 mg/kg/injection, schedule: Q01DX009 (ip), vehicle: saline) is 116 % of control; the T/C (dose: 3.12 mg/kg/injection, schedule: Q01DX009 (ip), vehicle: saline) is 103 % of control; the T/C (dose: 6.25 mg/kg/injection, schedule: Q01DX009 (ip), vehicle: saline) is 107 % of control; the T/C (dose: 6.25 mg/kg/injection, schedule: Q04DX003 (ip), vehicle: saline) is 91 % of control; the T/C (dose: 12.5 mg/kg/injection, schedule: Q01DX009 (ip), vehicle: saline) is 108 % of control; the T/C (dose: 12.5 mg/kg/injection, schedule: Q04DX003 (ip), vehicle: saline) was 103 % of control. Besides, the T/C (dose: 25.0 mg/kg/injection, schedule: Q01DX009 (ip), vehicle: saline) was 106 % of control; the T/C (dose: 25.0 mg/kg/injection, schedule: Q04DX003 (ip), vehicle: saline) is 107 % of control; the T/C (dose: 50.0 mg/kg/injection, schedule: Q01DX009 (ip), vehicle: saline) was 109 % of control; the T/C (dose: 50.0 mg/kg/injection, schedule: Q04DX003 (ip), vehicle: saline) is 119 % of control.

Take `O=[Te]=O`: the T/C reads like this: (dose: 3.12 mg/kg/injection, schedule: Q01DX005 (ip), vehicle: saline) 103 % of control; (dose: 6.25 mg/kg/injection, schedule: Q01DX005 (ip), vehicle: saline) 110 % of control; (dose: 12.5 mg/kg/injection, schedule: Q01DX005 (ip), vehicle: saline) 105 % of control and 116 % of control.

With `COc1ccc(C(=O)Nc2cccnc2)cc1`, the T/C by setting is: (dose: 50.0 mg/kg/injection, schedule: Q01DX009 (ip), vehicle: Klucel (hydroxypropylcellulose) (HPC)) 98 % of control; (dose: 100.0 mg/kg/injection, schedule: Q01DX009 (ip), vehicle: Klucel (hydroxypropylcellulose) (HPC)) 100 % of control; (dose: 200.0 mg/kg/injection, schedule: Q01DX009 (ip), vehicle: Klucel (hydroxypropylcellulose) (HPC)) 98 % of control.

On to `CCc1ccc(NC2=NCCO2)cc1`, for which the T/C is, setting by setting: (dose: 12.5 mg/kg/injection, schedule: Q01DX009 (ip), vehicle: saline with Tween-80) 100 % of control; (dose: 25.0 mg/kg/injection, schedule: Q01DX009 (ip), vehicle: saline with Tween-80) 105 % of control; under setting [5], 100 % of control.

`C=C1C(=O)O[C@@H]2[C@H](O)[C@@H](C)[C@@H]3C=CC(=O)[C@@]3(C)[C@@H](OC(=O)/C(C)=C/C)[C@H]12`: the T/C by setting is: (dose: 1.5 mg/kg/injection, schedule: Q01DX009 (ip), vehicle: saline + alcohol) 107 % of control; (dose: 6.0 mg/kg/injection, schedule: Q01DX009 (ip), vehicle: saline + alcohol) 118 % of control; (dose: 6.75 mg/kg/injection, schedule: Q01DX009 (ip), vehicle: saline + alcohol) 158 % of control; (dose: 8.75 mg/kg/injection, schedule: Q01DX009 (ip), vehicle: saline + alcohol) 120 % of control; (dose: 12.0 mg/kg/injection, schedule: Q01DX009 (ip), vehicle: saline + alcohol) 116 % of control; (dose: 12.5 mg/kg/injection, schedule: Q01DX009 (ip), vehicle: saline + alcohol) 164 % of control.
